{"source": "patent US20030162777A1", "about": "“Novel N-acylated heterocycles” (Recordati S.A., priority 2001, published 2003)", "data": [{"target": "T1, human 5HT1A-serotonergic receptor (Homo sapiens, UniProt P08908)", "T1 construct": "expressed in transfected cells; host or cells: HeLa (human cell line), stably transfected; cell membranes used", "T1 sequence (P08908 1-422)": "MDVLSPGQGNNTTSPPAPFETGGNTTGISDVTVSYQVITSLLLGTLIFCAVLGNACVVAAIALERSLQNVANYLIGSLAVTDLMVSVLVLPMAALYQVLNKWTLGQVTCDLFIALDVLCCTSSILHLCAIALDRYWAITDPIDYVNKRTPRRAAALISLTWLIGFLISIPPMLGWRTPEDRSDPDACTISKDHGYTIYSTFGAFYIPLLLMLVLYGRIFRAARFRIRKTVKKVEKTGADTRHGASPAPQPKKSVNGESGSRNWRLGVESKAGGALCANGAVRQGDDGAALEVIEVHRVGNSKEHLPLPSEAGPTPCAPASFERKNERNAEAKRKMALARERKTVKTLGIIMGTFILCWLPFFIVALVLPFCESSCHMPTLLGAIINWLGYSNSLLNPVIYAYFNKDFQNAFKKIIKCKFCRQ", "test": "Radioligand binding to recombinant 5-HT1A receptors", "conditions": "[3H]8-OH-DPAT 1 nM, membranes of HeLa cells with human 5-HT1A receptor; Ki from IC50 by Cheng & Prusoff; read-out: Binding affinity for 5HT1A receptors, Ki", "procedure": "Genomic clone G-21 coding for the human 5HT1A-serotonergic receptor was stably transfected in a human cell line (HeLa). HeLa cells were grown as monolayers in Dulbecco's modified Eagle medium (DMEM), containing 10% foetal bovine serum, gentamicin ([…]) and 5% carbon dioxide, at 37° C. The cells were detached from the growth flask at 95% confluence by a cell scraper and were lysed in cold 5 mM Tris and 5 mM EDTA buffer (pH 7.4). The homogenates were centrifuged at 40000×g×20 minutes and the pellets were resuspended in a small volume of cold 5 mM Tris and 5 mM EDTA buffer (pH 7.4) and immediately frozen and stored at −70° C. until use. On the day of experiment, the cell membranes were resuspended in incubation buffer: 50 mM Tris HCl (pH 7.4), 2.5 mM MgCl2, […] (Fargin et al., Nature 335, 358-360, 1988). The membranes were incubated in a final volume of 1 ml for 30 minutes at 30° C. with 1 nM [^3H]8-OH-DPAT, in the absence or presence of the test compounds. Non-specific binding was determined in the presence of 10 μM 5-HT. Incubation was stopped by addition of cold Tris-HC 1 buffer and rapid filtration through a 0.2%-polyethyleneimine-pretreated Whatman-GF/B or Schleicher-&-Schuell-GF52 filter.\nThe affinity of the tested compounds was evaluated as inhibition of specific binding of the radioligand to 5-HT1A receptors (IC50) by using the non-linear curve-fitting program Allfit (De Lean et al., Am. J. Physiol. 235, E97-E102 (1978). The IC50 value was converted to an affinity constant (Ki) by the equation of Cheng & Prusoff (Cheng Y. C., Prusoff W. H., Biochem. Pharmacol. 22, 3099-3108 (1973)).", "units": {"Ki": "nM"}, "values": [{"compound": "O=C(C1CCCCC1)N1c2ccccc2CCC1CN1CCC(c2ccccc2F)CC1", "note": "(centres unmarked) [Example 72A40, 1-(1-Cyclohexanecarbonyl-1,2,3,4-tetrahydroquinolin-2-!ylmethyl)-4-(2-fluorophenyl)piperidine]", "Ki": 19.8}, {"compound": "O=C(C1CCCCC1)N1c2ccccc2CCC1CN1CCN(c2ccc(F)cc2)CC1", "note": "(centres unmarked) [Example 72A26, 1-(1-Cyclohexanecarbonyl-1,2,3,4-tetrahydroquinolin-2-ylmethyl)-4-(4-fluorophenyl)piperazine]", "Ki": 19.6}, {"compound": "Cc1ccccc1NC(=O)N1c2ccccc2CCC1CN1CCN(c2cccc3c2OCCO3)CC1", "note": "(centres unmarked) [Example 76A12, 1-(2,3-Dihydrobenzo[1,4]dioxin-5-yl)-4-[1-(2-methylphenylaminocarbonyl)-1,2,3,4-tetrahydroquinolin-2-ylmethyl]piperazine]", "Ki": 8}, {"compound": "O=C(Cc1ccc2c(c1)OCO2)N1c2ccccc2CCC1CN1CCN(c2cccc3[nH]ccc23)CC1", "note": "(centres unmarked) [Example 68A49, 1-[1-[2-(5-Benzo[1,3]dioxolyl)acetyl]-1,2,3,4-tetrahydroquinoline-2-ylmethyl]-4-(4-indolyl)piperazine]", "Ki": 18.7}, {"compound": "CN(CCOc1cccc2[nH]ccc12)CC1CCc2ccccc2N1C(=O)C1CCCCC1", "note": "(centres unmarked) [Example 72A86, N-(1-Cyclohexanecarbonyl-1,2,3,4-tetrahydroquinolin-2-ylmethyl)-2-[4-(1H)-indolyloxy]ethylmethylamine]", "Ki": 4.3}, {"compound": "O=C(Cc1cccs1)N1c2ccccc2CCC1CN1CCN(c2cccc3[nH]ccc23)CC1", "note": "(centres unmarked) [Example 68A39, 1-(4-Indolyl)-4-[1-[2-(2-thienylacetyl)]-1,2,3,4-tetrahydroquinoline-2-ylmethyl]piperazine]", "Ki": 6.8}, {"compound": "COCCC(=O)N1c2ccccc2CCC1CN1CCN(c2cccc3[nH]ccc23)CC1", "note": "(centres unmarked) [Example 11, 1-[1-(3-Methoxypropionyl)-1,2,3,4-tetrahydroquinoline-2-ylmethyl]-4-(4-indolyl)piperazine]", "Ki": 40.8}, {"compound": "CNC(=S)N1c2ccccc2CCC1CN1CCN(c2cccc3[nH]ccc23)CC1", "note": "(centres unmarked) [Example 69A8, 1-(4-Indolyl)-4-[1-methylaminothiocarbonyl-1,2,3,4-tetrahydroquinoline-2-ylmethyl)piperazine]", "Ki": 39.5}, {"compound": "Cc1cccc(N2CCN(CC3CCc4ccccc4N3C(=O)C3CCCCC3)CC2)c1", "note": "(centres unmarked) [Example 72A30, 1-(1-Cyclohexanecarbonyl-1,2,3,4-tetrahydroquinolin-2-ylmethyl)-4-(3-methylphenyl)piperazine]", "Ki": 10.9}, {"compound": "1-(2-Ethylbutanoyl-1,2,3,4-tetrahydroquinoline-2-ylmethyl)-4-(4-indolyl)piperazine [Example 24A]", "Ki": 12.9}, {"compound": "CC(C)(C)OC(=O)NCC(=O)N1c2ccccc2CCC1CN1CCN(c2cccc3[nH]ccc23)CC1", "note": "(centres unmarked) [Example 71A, 1-[1-(2-tert-Butoxycarbonylamino)acetyl-1,2,3,4-tetrahydroquinoline-2-ylmethyl]-4-(4-indolyl)piperazine]", "Ki": 35.7}, {"compound": "O=C(CCCc1ccccc1)N1c2ccccc2CCC1CN1CCN(c2cccc3[nH]ccc23)CC1", "note": "(centres unmarked) [Example 68A66, 1-(4-Indolyl)-1-[1-(4-phenylbutanoyl)-1,2,3,4-tetrahydroquinoline-2-ylmethyl]piperazine]", "Ki": 19.6}, {"compound": "Cc1ccc(NC(=O)N2c3ccccc3CCC2CN2CCN(c3cccc4[nH]ccc34)CC2)cc1", "note": "(centres unmarked) [Example 69A3, 1-(4-Indolyl)-4-[1-(4-methylphenylaminocarbonyl)-1,2,3,4-tetrahydroquinoline-2-ylmethyl]piperazine]", "Ki": 9.3}, {"compound": "Cc1ccc(F)c(N2CCN(CC3CCc4ccccc4N3C(=O)C3CCCCC3)CC2)c1", "note": "(centres unmarked) [Example 35A12, 1-(1-Cyclohexanecarbonyl-1,2,3,4-tetrahydroquinoline-2-ylmethyl)-4-(2-fluoro-5-methylphenyl)piperazine]", "Ki": 9.5}, {"compound": "O=S(=O)(Cc1ccccc1)N1c2ccccc2CCC1CN1CCN(c2cccc3c2OCCO3)CC1", "note": "(centres unmarked) [Example 76A11, 1-(2,3-Dihydrobenzo[1,4]dioxin-5-yl)-4-(1-phenylmethanesulphonyl-1,2,3,4-tetrahydroquinolin-2-ylmethyl)piperazine]", "Ki": 4.5}, {"compound": "N#Cc1ccc(C(=O)N2c3ccccc3CCC2CN2CCN(c3cccc4[nH]ccc34)CC2)cc1", "note": "(centres unmarked) [Example 68A3, 1-[1-(4-Cyanobenzoyl)-1,2,3,4-tetrahydroquinoline-2-ylmethyl]-4-(4-indolyl)piperazine]", "Ki": 7.1}, {"compound": "CC(=O)N1CCC(C(=O)N2c3ccccc3CCC2CN2CCN(c3cccc4[nH]ccc34)CC2)CC1", "note": "(centres unmarked) [Example 68A38, 1-[1-(1-Acetylpiperidine-4-carbonyl)-1,2,3,4-tetrahydroquinoline-2-ylmethyl]-4-(4-indolyl)piperazine]", "Ki": 24.4}, {"compound": "CN(CCOc1ccccc1Cl)CC1CCc2ccccc2N1C(=O)C1CCCCC1", "note": "(centres unmarked) [Example 72A84, N-(1-Cyclohexanecarbonyl-1,2,3,4-tetrahydroquinolin-2-ylmethyl)-2-(2-chlorophenoxy)ethylmethylamine]", "Ki": 15.7}, {"compound": "COc1cc(C)ccc1N1CCN(CC2CCc3ccccc3N2C(=O)C2CCCCC2)CC1", "note": "(centres unmarked) [Example 86A, 1-(1-Cyclohexanecarbonyl-1,2,3,4-tetrahydroquinoline-2-ylmethyl)-4-(2-methoxy-4-methylphenyl)piperazine]", "Ki": 18.2}, {"compound": "CC(=O)N1CCC(C(=O)N2c3ccccc3CCC2CN2CCN(c3nccc4ccccc34)CC2)CC1", "note": "(centres unmarked) [Example 75A7, 1-[1-(1-Acetyl-4-piperidinecarbonyl)-1,2,3,4-tetrahydroquinolin-2-ylmethyl]-4-(1-isoquinolinyl)piperazine]", "Ki": 5.4}, {"compound": "O=C(C1CCCCC1)N1c2ccccc2CCC1CN1CCN(c2ccccc2OCC(F)(F)F)CC1", "note": "(centres unmarked) [Example 4, 1-(1-Cyclohexanecarbonyl-1,2,3,4-tetrahydroquinoline-2-ylmethyl)-4-[2-(2,2,2-trifluoroethoxy)phenyl]piperazine]", "Ki": 0.7}, {"compound": "CC(C)(C)OC(=O)N1CCC[C@@H]1C(=O)N1c2ccccc2CCC1CN1CCN(c2cccc3[nH]ccc23)CC1", "note": "(stereo partly drawn) [Example 71A4, 1-[1-(1-tert-Butoxycarbonyl-(2R)-pyrrolidin-2yl)carbonyl-1,2,3,4-tetrahydroquinoline-2-ylmethyl]-4-(4-indolyl)piperazine]", "Ki": 45.9}, {"compound": "CCn1ccc2c(N3CCN(CC4CCc5ccccc5N4C(=O)C4CCCCC4)CC3)cccc21", "note": "(centres unmarked) [Example 62A, 1-(1-Cyclohexanecarbonyl-1,2,3,4-tetrahydroquinoline-2-ylmethyl)-4-(1-ethyl-4-indolyl)piperazine]", "Ki": 43.4}, {"compound": "CN(CC(=O)N1c2ccccc2CCC1CN1CCN(c2cccc3[nH]ccc23)CC1)C(=O)c1ccccc1", "note": "(centres unmarked) [Example 68A46, 1-[1-[2-(N-Benzoyl-N-methylamino)acetyl]-1,2,3,4-tetrahydroquinoline-2-ylmethyl]-4-(4-indolyl)piperazine]", "Ki": 34.9}, {"compound": "CN(C)c1ccc(C(=O)N2c3ccccc3CCC2CN2CCN(c3cccc4[nH]ccc34)CC2)cc1", "note": "(centres unmarked) [Example 68A1, 1-[1-(4-Dimethylaminobenzoyl)-1,2,3,4-tetrahydroquinoline-2-ylmethyl]-4-(4-indolyl)piperazine]", "Ki": 23.9}, {"compound": "O=C(c1cccnc1)N1c2ccccc2CCC1CN1CCN(c2cccc3[nH]ccc23)CC1", "note": "(centres unmarked) [Example 68A33, 1-(4-Indolyl)-4-[1-(3-pyridylcarbonyl)-1,2,3,4-tetrahydroquinoline-2-ylmethyl]piperazine]", "Ki": 13.3}, {"compound": "N#CNCCC(=O)N1c2ccccc2CCC1CN1CCN(c2cccc3[nH]ccc23)CC1", "note": "(centres unmarked) [Example 54, 1-[1-(3-Cyanominopropionyl)-1,2,3,4-tetrahydroquinoline-2-ylmethyl]-4-(4-indolyl)piperazine]", "Ki": 51}, {"compound": "O=C(c1ccc(N2CCOCC2)nc1)N1c2ccccc2CCC1CN1CCN(c2cccc3[nH]ccc23)CC1", "note": "(centres unmarked) [Example 68A52, 1-(4-Indolyl)-4-[1-[2-(4-morpholinyl)pyridine-5-carbonyl]-1,2,3,4-tetrahydroquinoline-2-ylmethyl]piperazine]", "Ki": 18.3}, {"compound": "O=C(C1CCCCC1)N1c2ccccc2CCC1CN1CCN(c2cccc(O)c2)CC1", "note": "(centres unmarked) [Example 72A17, 1-(1-Cyclohexanecarbonyl-1,2,3,4-tetrahydroquinolin-2-ylmethyl)-4-(3-hydroxyphenyl)piperazine]", "Ki": 38.5}]}]}
